Read-outs that look alike come from different tables or passages of the source.
Assays:
human EGF receptor = biological target: T1, human EGF receptor (Homo sapiens, UniProt P00533); assay: EGFR Whole Cell Kinase Assay (EGFR-3T3 assay); type: cell-based
T1 construct: expressed in transfected cells; host or cells: NIH3T3 clone C7 (EGFR/C7)
Procedure: Growth assays were carried out using human mammary epithelial SKBR3 (ATCC HTB30) cells (SKBR3 cells over-express HER2), SKOV3 (ATCC HTB77) human ovarian cancer cell line (SKOV3 cells also over-express HER2), A431 cells (A431 cells over-express EGFR) MCF7 human breast carcinoma cells, MCF7 cells overexpressing the HER2 kinase (MCF7-HER2), NIH3T3 cells, and NIH3T3 cells overexpressing the HER2 kinase (3T3-HER2.
EGFR Whole Cell Kinase Assay
EGFR kinase activity (EGFR-3T3 assay) in whole cells was measured as described below:
Coated plates are good for up to 10 days when stored at 4.sunburst.C.
B. On day of use, remove coating buffer and replace with blocking buffer (5% Carnation Instant NonFat Dry Milk in PBS). Incubate the plate, shaking, at room temperature (about 23.sunburst.C to 25.sunburst.C) for 30 minutes. Just prior to use, remove blocking buffer and wash plate 4 times with TBST buffer.
A. EGFR/C7 cell line (Honegger, et al., supra) can be used for this assay.
B. Choose dishes having 80-90% confluence for the experiment.
Trypsinize cells and stop reaction by adding 10% CS DMEM medium. Suspend cells in DMEM medium (10% CS DMEM medium) and centrifuge once at 1000 rpm, and once at room temperature for 5 minutes.
C. Resuspend cells in seeding medium (DMEM, 0.5% bovine serum), and count the cells using trypan blue. Viability above 90% is acceptable. Seed cells in DMEM medium (0.5% bovine serum) at a density of 10,000 cells per well, 100 μl per well, in a 96 well microtiter plate. Incubate seeded cells in 5% CO2 at 37.sunburst.C for about 40 hours.
A. Check seeded cells for contamination using an inverted microscope. Dilute drug stock (10 mg/ml in DMSO) 1:10 in DMEM medium, then transfer 5 μl to a test well for a final drug dilution of 1:200 and a final DMSO concentration of 1%.
Control wells receive DMSO alone. Incubate in 5% CO2 at 37° C. for one hour.
C. Prepare fresh HNTG sufficient for 100 μl per well; and place on ice.
Control wells receive DMEM alone. […]
K. The maximal phosphotyrosine signal is determined by subtracting the value of the negative controls from the positive controls.

[1] = system: MCF7 cells overexpressing the HER2 kinase (MCF7-HER2); assay: MCF-7/HER-2 SRB Growth Assay; type: cell-based; conditions: Homo sapiens, read-out: GROWTH DATA: MCF7-HER2 0.5% FBS
Excerpt: The following examples illustrate the ability of the exemplary compounds to inhibit receptor tyrosine kinases, such as HER2 and/or EGFR. The following target cells were used for cellular kinase assays: NIH3T3 clone C7 (Honegger et al., supra) engineered to over-express human EGF receptor; NIH3T3 cells engineered to over-express a chimeric receptor containing the EGFR extracellular domain and the HER2 intracellular kinase domain; the human mammary carcinoma line BT474 (ATCC HTB2) expressing HER2; and the human glioblastoma line U1242 that expresses PDGFR-beta. Growth assays were carried out using human mammary epithelial SKBR3 (ATCC HTB30) cells (SKBR3 cells over-express HER2), SKOV3 (ATCC HTB77) human ovarian cancer cell line (SKOV3 cells also over-express HER2), A431 cells (A431 cells over-express EGFR) MCF7 human breast carcinoma cells, MCF7 cells overexpressing the HER2 kinase (MCF7-HER2), NIH3T3 cells, and NIH3T3 cells overexpressing the HER2 kinase (3T3-HER2.
MCF-7/HER-2 SRB Growth Assay
The protocol is basically the same as that above (for the MCF-7 Growth Assay) except that immediately before the 30 compound is added, the normal growth media is removed and 0.5% FBS/RPMI supplemented with 2 mM Glutamine is added onto the cells. The compound is also prepared in this 0.5% serum media. The plate of cells is incubated for four days and developed as usual.

[2] = EGFR/C7 NIH3T3 cells, EGF stimulated, read-out: ELISA DATA: EGFR

T1 sequence (P00533 25-1210): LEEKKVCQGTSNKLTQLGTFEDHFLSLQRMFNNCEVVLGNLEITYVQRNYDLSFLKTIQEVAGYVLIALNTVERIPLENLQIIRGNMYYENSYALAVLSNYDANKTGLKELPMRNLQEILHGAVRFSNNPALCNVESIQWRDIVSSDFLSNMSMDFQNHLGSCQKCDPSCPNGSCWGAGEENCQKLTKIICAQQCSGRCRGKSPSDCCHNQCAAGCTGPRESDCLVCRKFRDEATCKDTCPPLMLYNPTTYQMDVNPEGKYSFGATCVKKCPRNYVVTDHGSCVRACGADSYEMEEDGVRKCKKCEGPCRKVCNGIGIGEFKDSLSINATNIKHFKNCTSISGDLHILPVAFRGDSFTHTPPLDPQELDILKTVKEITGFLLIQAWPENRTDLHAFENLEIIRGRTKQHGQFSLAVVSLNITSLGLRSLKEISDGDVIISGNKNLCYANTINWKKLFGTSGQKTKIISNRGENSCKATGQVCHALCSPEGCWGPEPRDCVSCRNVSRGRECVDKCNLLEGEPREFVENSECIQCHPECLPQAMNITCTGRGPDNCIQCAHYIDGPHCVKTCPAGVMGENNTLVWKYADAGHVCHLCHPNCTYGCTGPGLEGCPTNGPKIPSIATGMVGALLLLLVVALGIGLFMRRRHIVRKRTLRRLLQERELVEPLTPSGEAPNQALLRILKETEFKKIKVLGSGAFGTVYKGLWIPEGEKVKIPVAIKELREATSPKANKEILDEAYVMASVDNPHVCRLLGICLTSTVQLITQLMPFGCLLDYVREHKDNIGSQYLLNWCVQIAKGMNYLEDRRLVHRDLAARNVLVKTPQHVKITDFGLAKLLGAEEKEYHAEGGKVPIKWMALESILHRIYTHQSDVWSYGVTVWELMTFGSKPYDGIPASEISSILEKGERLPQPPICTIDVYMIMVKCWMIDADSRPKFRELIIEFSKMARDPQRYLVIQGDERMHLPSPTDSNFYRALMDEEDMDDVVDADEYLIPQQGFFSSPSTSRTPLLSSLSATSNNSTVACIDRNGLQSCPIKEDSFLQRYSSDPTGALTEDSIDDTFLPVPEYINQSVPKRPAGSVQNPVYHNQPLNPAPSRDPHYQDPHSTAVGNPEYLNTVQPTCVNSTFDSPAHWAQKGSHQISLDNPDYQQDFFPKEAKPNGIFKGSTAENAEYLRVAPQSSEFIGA

IC50 (human EGF receptor; [2]) [nM] | IC50 [1] [nM] | Structure (SMILES) | IC50 (human EGF receptor) [nM]
> 100000 | 900 | CC(C)S(=O)(=O)c1csc(NC(=O)Nc2ccc(C(C)(C)C)cc2)c1Cl [Example Z1, N-[3-Chloro-4-(isopropylsulfonyl)thien-2-yl]-N'-(4-t-butylphenyl)urea] | –
– | 300 | CC(C)S(=O)(=O)c1csc(NC(=O)Nc2cc(C(F)(F)F)cc(C(F)(F)F)c2)c1Cl [Example Z2, N-[3-Chloro-4-(isopropylsulfonyl)thien-2-yl]-N'-(3,5-di-trifluoromethylphenyl)urea] | –
> 100000 | 1000 | N#Cc1ccc(NC(=S)Nc2ccc(S(=O)(=O)N3CCCCC3)cc2)cc1 [Example Z4, N-(4-Cyanophenyl)-N'-[4-[(piperid-1-yl)sulfonyl]phenyl]thiourea] | –

Structure (SMILES) | IC50 (human EGF receptor; [2]) [nM] | IC50 [1] [nM] | IC50 (human EGF receptor) [nM]
O=C(Nc1ccc(SC(F)(F)F)cc1)Nc1ccc(Oc2ccc(Cl)cc2Cl)nc1 [Example Z3] | – | 200 | 69500

Reference: patent US5773459A, “Urea- and thiourea-type compounds” (Sugen, Inc., priority 1995, dated 1998)
